We go through 23 compounds from patent US7566712B2, “Biaryl piperazinyl-pyridine analogues” (Neurogen Corporation, priority 2003, dated 2009).

In the assay the target is T1, human capsaicin receptor (Homo sapiens, UniProt Q8NER1).
T1 construct: pBK-CMV expression construct encoding the full length human capsaicin receptor; expressed in transfected cells
Put plainly: Calcium mobilization assay, determination of antagonist activity (Example 6). The class given is cell-based. Conditions: determined as described in Example 6 (calcium mobilization, antagonist activity); Table II. The essentials:
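HEK293 clonal lines stably expressing full-length human capsaicin receptor, loaded with Fluo-3 AM in KRH buffer pH 7.4, 1–2 h at 37 °C. Compounds (1–5 μM final) preincubated 0.5–6 h at room temperature, then capsaicin at its EC50 added. FLIPR/Fluoroskan calcium signal; IC50 as 50% decrease of capsaicin response.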
A general note: A change in cytosolic calcium serves as a functional read-out for many receptors and channels.

Each structure is given as a SMILES string.

T1 sequence (Q8NER1 whole entry): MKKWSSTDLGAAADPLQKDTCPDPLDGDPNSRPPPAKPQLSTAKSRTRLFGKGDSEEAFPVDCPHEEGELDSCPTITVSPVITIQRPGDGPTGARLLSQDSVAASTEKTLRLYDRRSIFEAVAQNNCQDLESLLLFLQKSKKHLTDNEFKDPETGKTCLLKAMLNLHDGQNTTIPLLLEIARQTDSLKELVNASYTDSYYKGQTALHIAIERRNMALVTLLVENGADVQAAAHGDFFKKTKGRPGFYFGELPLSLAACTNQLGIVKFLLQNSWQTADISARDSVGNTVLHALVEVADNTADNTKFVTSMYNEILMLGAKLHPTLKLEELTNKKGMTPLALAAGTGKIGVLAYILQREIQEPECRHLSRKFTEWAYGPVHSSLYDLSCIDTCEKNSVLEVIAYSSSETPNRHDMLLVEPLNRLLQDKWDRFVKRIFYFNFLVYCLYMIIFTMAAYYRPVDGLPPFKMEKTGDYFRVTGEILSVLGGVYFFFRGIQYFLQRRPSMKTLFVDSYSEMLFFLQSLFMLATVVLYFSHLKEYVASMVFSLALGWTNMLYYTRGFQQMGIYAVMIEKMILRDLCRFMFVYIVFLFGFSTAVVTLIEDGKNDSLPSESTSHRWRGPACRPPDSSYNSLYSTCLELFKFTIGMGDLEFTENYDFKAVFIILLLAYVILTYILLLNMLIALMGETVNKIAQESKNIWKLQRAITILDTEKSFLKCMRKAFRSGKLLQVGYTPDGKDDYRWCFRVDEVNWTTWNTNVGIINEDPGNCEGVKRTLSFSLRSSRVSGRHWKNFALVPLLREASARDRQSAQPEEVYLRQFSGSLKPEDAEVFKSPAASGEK

For the compound `CC1CCCN1c1nc(-c2ccc(F)c(Cl)c2)cc(N2CCN(c3ncccc3C#N)CC2)n1` (centres unmarked) [Example 709, 2-{4-[6-(3-chloro-4-fluorophenyl)-2-(2-methylpyrrolidin-1-yl)pyrimidin-4-yl]piperazin-1-yl}nicotirionitrile], the IC50 – broadly, the point on the concentration scale where inhibition reaches its midpoint – is ≤ 1000 nM. With `Fc1ccc(-c2cc(N3CCN(c4ncccc4C(F)(F)F)CC3)nc(N3CCC3)n2)cc1Cl` [Example 710, 2-azetidin-1-yl-4-(3-chloro-4-fluorophenyl)-6-{4-[3-(trifluoromethyl)pyridin-2-yl]piperazin-1-yl}pyrimidine], the IC50 is ≤ 1000 nM.

Turning to `CN(C)C(=O)[C@@H]1CCCN1c1nc(-c2ccc(F)c(Cl)c2)cc(N2CCN(c3ncccc3C(F)(F)F)CC2)n1` [Example 711, 1-(4-(3-chloro-4-fluorophenyl)-6-{4-[3-(trifluoromethyl)pyridin-2-yl]piperazin-1-yl}pyrimidin-2-yl)-N,N-dimethyl-L-prolinamide], the IC50 was ≤ 1000 nM. With `CN(C)C[C@@H]1CCCN1c1nc(-c2ccc(F)c(Cl)c2)cc(N2CCN(c3ncccc3C(F)(F)F)CC2)n1` [Example 712, 1-[(2S)-1-(4-(3-chloro-4-fluorophenyl)-6-{4-[3-(trifluoromethyl)pyridin-2-yl]piperazin-1-yl}pyrimidin-2-yl)pyrrolidin-2-yl]-N,N-dimethylmethanamine] the figure was ≤ 1000 nM; with `Fc1ccc(-c2cc(N3CCN(c4ncccc4Cl)CC3)nc(N3CCCC3)n2)cc1Cl` [Example 713, 4-(3-chloro-4-fluorophenyl)-6-[4-(3-chloropyridin-2-yl)piperazin-1-yl]-2-pyrrolidin-1-ylpyrimidine], ≤ 1000 nM; with `CC1CCCN1c1nc(-c2ccc(F)c(Cl)c2)cc(N2CCN(c3ncccc3Cl)CC2)n1` (centres unmarked) [Example 714, 4-(3-chloro-4-fluorophenyl)-6-[4-(3-chloropyridin-2-yl)piperazin-1-yl]2-(2-methylpyrrolidin-1-yl)pyrimidine], ≤ 1000 nM.

Take `Fc1ccc(-c2cc(N3CCN(c4ncccc4Cl)CC3)nc(N3CCCCC3)n2)cc1Cl` [Example 715, 4-(3-chloro-4-fluorophenyl)-6-[4-(3-chloropyridin-2-yl)piperazin-1-yl]-2-piperidin-1-ylpyrimidine]: the IC50 is ≤ 1000 nM. With `Cc1cc(-c2cc(N3CCN(c4ncccc4C(F)(F)F)CC3)nc(N3CCN(C(C)C)CC3)n2)ccc1F` [Example 716, 4-(4-fluoro-3-methylphenyl)-2-(4-isopropylpiperazin-1-yl)-6-{4-[3-(trifluoromethyl)pyridin-2-yl]piperazin-1-yl}pyrimidine] the figure was ≤ 1000 nM; with `Cc1cc(-c2cc(N3CCN(c4ncccc4Cl)CC3)nc(N3CCCCC3)n2)ccc1F` [Example 717, 4-[4-(3-chloropyridin-2-yl)piperazin-1-yl]-6-(4-fluoro-3-methylphenyl)-2-piperidin-1-ylpyrimidine], ≤ 1000 nM; with `Cc1cc(-c2cc(N3CCN(c4ncccc4Cl)C[C@H]3C)nc(N3CCCC3)n2)ccc1F` [Example 718, 4-[(2R)-4-(3-chloropyridin-2-yl)-2-methylpiperazin-1-yl]-6-(4-fluoro-3-methylphenyl)-2-pyrrolidin-1-ylpyrimidine], ≤ 1000 nM.

For `Cc1cc(-c2cc(N3CCN(c4ncccc4Cl)C[C@H]3C)nc(N3CCCC3C)n2)ccc1F` (stereo partly drawn) [Example 719, 4-[(2R)-4-(3-chloropyridin-2-yl)-2-methylpiperazin-1-yl]-6-(4-fluoro-3-methylphenyl)-2-(2-methylpyrrolidin-1-yl)pyrimidine], the IC50 is ≤ 1000 nM. Take `Cc1cc(-c2cc(N3CCN(c4ncccc4Cl)C[C@H]3C)nc(N3CCCCC3)n2)ccc1F` [Example 720, 4-[(2R)-4-(3-chloropyridin-2-yl)-2-methylpiperazin-1-yl]-6-(4-fluoro-3-methylphenyl)-2-piperidin-1-ylpyrimidine]: the IC50 was ≤ 1000 nM.

On to `CCN(CC)c1nc(-c2ccc(F)c(C)c2)cc(N2CCN(c3ncccc3Cl)CC2)n1` [Example 721, 4-[4-(3-chloropyridin-2-yl)piperazin-1-yl]-N,N-diethyl-6-(4-fluoro-3-methylphenyl)pyrimidin-2-amine], for which the IC50 is ≤ 1000 nM. For `C[C@@H]1CN(c2ncccc2Cl)CCN1c1cc(-c2ccc(F)c(Cl)c2)nc(SCc2ccccc2)n1` [Example 722, 2-(benzylthio)-4-(3-chloro-4-fluorophenyl)-6-[(2R)-4-(3-chloropyridin-2-yl)-2-methylpiperazin-1-yl]pyrimidine] the value was ≤ 1000 nM; for `C[C@@H]1CN(c2ncccc2Cl)CCN1c1cc(-c2ccc(F)c(Cl)c2)nc(S(=O)(=O)Cc2ccccc2)n1` [Example 723, 2-(benzylsulfonyl)-4-(3-chloro-4-fluorophenyl)-6-[(2R)-4-(3-chloropyridin-2-yl)-2-methylpiperazin-1-yl]pyrimidine], ≤ 1000 nM; for `CCN(CC)c1nc(-c2ccc(F)c(Cl)c2)cc(N2CCN(c3ncccc3Cl)CC2)n1` [Example 724, 4-(3-chloro-4-fluorophenyl)-6-[4-(3-chloropyridin-2-yl)piperazin-1-yl]-N,N-diethylpyrimidin-2-amine], ≤ 1000 nM. Regarding `CC(C)N(C)c1nc(-c2ccc(F)c(Cl)c2)cc(N2CCN(c3ncccc3Cl)CC2)n1` [Example 725, 4-(3-chloro-4-fluorophenyl)-6-[4-(3-chloropyridin-2-yl)piperazin-1-yl]-N-isopropyl-N-methylpyrimidin-2-amine], the IC50 is ≤ 1000 nM. Regarding `COC[C@@H]1CCCN1c1nc(-c2ccc(F)c(C)c2)cc(N2CCN(c3ncccc3Cl)CC2)n1` [Example 726], the IC50 is ≤ 1000 nM. With `COC[C@H]1CCCN1c1nc(-c2ccc(F)c(C)c2)cc(N2CCN(c3ncccc3Cl)C[C@H]2C)n1` [Example 728, 4-[(2R)-4-(3-chloropyridin-2-yl)-2-methylpiperazin-1-yl]-6-(4-fluoro-3-methylphenyl)-2-[(2R)-2-(methoxymethyl)pyrrolidin-1-yl]pyrimidine] the figure was ≤ 1000 nM; with `COC[C@@H]1CCCN1c1nc(-c2ccc(F)c(C)c2)cc(N2CCN(c3ncccc3Cl)C[C@H]2C)n1` [Example 729, 4-[(2R)-4-(3-chloropyridin-2-yl)-2-methylpiperazin-1-yl]-6-(4-fluoro-3-methylphenyl)-2-[(2S)-2-(methoxymethyl)pyrrolidin-1-yl]pyrimidine], ≤ 1000 nM. For `Cc1cc(-c2cc(N3CCN(c4ncccc4Cl)CC3)nc(N(C)C(C)C)n2)ccc1F` [Example 730, 4-[4-(3-chloropyridin-2-yl)piperazin-1-yl]-6-(4-fluoro-3-methylphenyl)-N-isopropyl-N-methylpyrimidin-2-amine] the value was ≤ 1000 nM. Regarding `C[C@@H]1CN(c2ncccc2Cl)CCN1c1cc(-c2ccc(F)c(Cl)c2)nc(N2CCCC2)n1` [Example 731, 4-(3-chloro-4-fluorophenyl)-6-[(2R)-4-(3-chloropyridin-2-yl)-2-methylpiperazin-1-yl]-2-pyrrolidin-1-ylpyrimidine], the IC50 was ≤ 1000 nM. With `CC1CCCN1c1nc(-c2ccc(F)c(Cl)c2)cc(N2CCN(c3ncccc3Cl)C[C@H]2C)n1` (stereo partly drawn) [Example 732, 4-(3-chloro-4-fluorophenyl)-6-[(2R)-4-(3-chloropyridin-2-yl)-2-methylpiperazin-1-yl]-2-(2-methylpyrrolidin-1-yl)pyrimidine] the figure was ≤ 1000 nM.
